Reference: paper PMC11377560, “Structural insights into the molecular effects of the anthelmintics monepantel and betaine on the Caenorhabditis elegans acetylcholine receptor ACR-23” (The EMBO Journal, 2024)
pEC50: −log10 of the molar value. Each block holds one compound with its values, some of them ahead of it.

What was measured:
[1] = target: T1, ACR-23 (acetylcholine receptor like-23) (Caenorhabditis elegans, UniProt G5EG88); test: cryo-EM structure ([…] Å, betaine co-bound); EC50 by whole-cell patch clamp in HEK293 cells; type: cell-based
T1 construct: homo-pentamer; M3-M4 loop (residues Lys 386 to Gln 437) replaced with bRIL, C-terminal strep tag (cryo-EM); ACR-23 with C-terminal GFP in HEK293 cells (EC50)

[2] = target: T1, ACR-23 (acetylcholine receptor like-23); test: cryo-EM structure ([…] Å); EC50 by whole-cell patch clamp in HEK293 cells; type: cell-based
[3] = target: engineered ACR-23 (acetylcholine receptor like-23), M3-M4 loop replaced with bRIL (Caenorhabditis elegans | not stated) (UniProt G5EG88); test: cryo-EM structure; single particle cryo-EM of purified ACR-23 in DDM/CHS, 20 mM Tris pH 8.0, 150 mM NaCl; apo, with 1.5 mM betaine, or with 1.5 mM betaine and 5 mM monepantel; homo-pentamer in all three states

T1 sequence (G5EG88 20-545): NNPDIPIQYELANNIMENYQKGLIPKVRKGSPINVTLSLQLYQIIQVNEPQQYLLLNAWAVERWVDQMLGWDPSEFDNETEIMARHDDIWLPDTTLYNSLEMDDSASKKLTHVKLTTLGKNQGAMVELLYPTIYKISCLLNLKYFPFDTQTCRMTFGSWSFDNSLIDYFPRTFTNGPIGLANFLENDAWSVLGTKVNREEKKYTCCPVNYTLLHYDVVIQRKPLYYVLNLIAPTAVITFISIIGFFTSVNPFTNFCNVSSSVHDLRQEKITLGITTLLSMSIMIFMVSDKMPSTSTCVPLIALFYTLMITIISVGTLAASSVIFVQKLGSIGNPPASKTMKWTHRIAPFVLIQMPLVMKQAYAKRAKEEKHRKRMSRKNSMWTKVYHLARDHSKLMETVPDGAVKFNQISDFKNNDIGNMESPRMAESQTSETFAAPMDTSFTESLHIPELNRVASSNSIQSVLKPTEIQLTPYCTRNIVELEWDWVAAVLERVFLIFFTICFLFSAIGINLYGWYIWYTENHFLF

Compound: CC(C#N)(COc1cc(C#N)ccc1C(F)(F)F)NC(=O)c1ccc(SC(F)(F)F)cc1 (racemic) [monepantel]
pEC50 [1]: 5.67

pEC50 [2]: ~4.46
Compound: C[N+](C)(C)CC(=O)O [betaine]

stoichiometry N [3]: 5
Compound: engineered ACR-23 (acetylcholine receptor like-23), M3-M4 loop replaced with bRIL (from UniProt G5EG88 20-385; G5EG88 438-545)
